In this assay the target is Serine protease 1 (Homo sapiens, UniProt P07477). Kind of assay: Enzymatic Activity Assay.

pIC50: −log10 of the molar value. A value given as a limit tells only on which side of the number the result lay.

Chain of Serine protease 1 (P07477 whole entry): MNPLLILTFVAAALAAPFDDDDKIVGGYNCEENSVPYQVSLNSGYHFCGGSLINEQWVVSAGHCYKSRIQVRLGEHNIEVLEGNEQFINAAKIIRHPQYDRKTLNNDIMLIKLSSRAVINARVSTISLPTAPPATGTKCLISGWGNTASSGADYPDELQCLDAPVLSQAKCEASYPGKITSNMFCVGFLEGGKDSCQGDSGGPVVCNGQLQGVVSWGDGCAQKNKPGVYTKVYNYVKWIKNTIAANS
Protocol: Human serine protease enzymes plasmin, thrombin and trypsin were assayed for enzymatic activity using an appropriate fluorogenic substrate. Protease activity was measured by monitoring the accumulation of liberated fluorescence from the substrate over 5 minutes. The linear rate of fluorescence increase per minute was expressed as percentage (%) activity. The Km for the cleavage of each substrate was determined by standard transformation of the Michaelis-Menten equation.

On to `COCc1nn(Cc2ccc(Cn3cc(F)ccc3=O)cc2)cc1C(=O)NCc1nccc(OC)c1F` [US11584735, Compound of Formula A], for which the negative-log IC50 (pIC50) is less than 4.40.

(Values after BindingDB's records for patent US11584735 (Kalvista Pharmaceuticals, 2023).)
